For experiment [1], the system named is blackgrass. Description: Test Example 5: herbicidal effect by foliage application, plastic box (Table 20, symbol J). Type of experiment: in vivo, blackgrass (Alopecurus myosuroides). To be noted: foliage application; for J: blackgrass, herbicidal effect (criteria 0-5): AAH 320 g/ha, evaluated three weeks after application; for J: blackgrass, herbicidal effect grade: 320 g/ha, three weeks after application. The essentials:
(§1)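 Sow seeds spot-wise in sterilized diluvial soil; cover with ~1.5 cm soil. Grow 14 days in greenhouse, 25° C. to 30° C. Spray foliage with emulsion diluted to predetermined amount. Rate effect after 3 weeks.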

The test system of experiment [2] is wild oat. Description: Test Example 5: herbicidal effect by foliage application, plastic box (Table 20, symbol I). Particulars: foliage application; for I: wild oat, herbicidal effect (criteria 0-5): AAH 320 g/ha, evaluated three weeks after application; for I: wild oat, herbicidal effect grade: 320 g/ha, three weeks after application. Type of experiment: in vivo, wild oat (Avena fatua). The essentials: as §1

The subject of experiment [3] is chickweed. Description: Test Example 5: herbicidal effect by foliage application, plastic box (Table 20, symbol P). Format: in vivo, common chickweed (Stellaria media). To be noted: foliage application; for P: chickweed, herbicidal effect (criteria 0-5): AAH 320 g/ha, evaluated three weeks after application; for P: chickweed, herbicidal effect grade: 320 g/ha, three weeks after application. The essentials:
as §1

Experiment [4] concerns wild oat. The experiment in a line: Test Example 4: herbicidal effect by soil treatment (Table 19, symbol I). Type of experiment: in vivo, wild oat (Avena fatua). Particulars: amount of applied herbicide 320 g/ha. The essentials:
(§2)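 Applied as a water-diluted emulsion, the compound was sprayed onto soil covering newly sown seeds. Evaluation came three weeks after application, in a greenhouse held at 25° C. to 30° C.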

Experiment [5] has as its system barnyard grass. The experiment in a line: Test Example 5: herbicidal effect by foliage application, plastic box (Table 20, symbol H). Type of experiment: in vivo, barnyard grass (Echinochloa crus-galli). To be noted: foliage application; for H: barnyard grass, herbicidal effect (criteria 0-5): AAH 320 g/ha, evaluated three weeks after application; for H: barnyard grass, herbicidal effect grade: 320 g/ha, three weeks after application. The essentials:
as §1

The subject of experiment [6] is blackgrass. The experiment in a line: Test Example 4: herbicidal effect by soil treatment (Table 19, symbol J). Type of experiment: in vivo, blackgrass (Alopecurus myosuroides). Particulars: amount of applied herbicide 320 g/ha. A digest of the protocol:
as §2

Experiment [7] relates to oval-leafed pondweed. Description: Test Example 2: herbicidal activity, application during weed generation under submerged conditions (Table 17, symbol C). Particulars: AAH 320 g/ha; application during weed generation, submerged conditions. Format: in vivo, oval-leafed pondweed (Monochoria vaginalis). A digest of the protocol: (§3)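 Steps: fill Wagner pots with alluvial soil; add water to give 4 cm depth; sow the species mixed; grow under glass at 25–30° C.; at 1–2 leaves apply water-diluted emulsion formulation to the water surface at a fixed herbicide amount; score after 3 weeks.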

Experiment [8] relates to southern crabgrass. Description: Test Example 4: herbicidal effect by soil treatment (Table 19, symbol F). Format: in vivo, southern crabgrass (Digitaria ciliaris). Particulars: amount of applied herbicide 320 g/ha. A digest of the protocol:
as §2

Experiment [9] concerns green foxtail. Description: Test Example 5: herbicidal effect by foliage application, plastic box (Table 20, symbol G). Type of experiment: in vivo, green foxtail (Setaria viridis). To be noted: foliage application; for G: green foxtail, herbicidal effect (criteria 0-5): AAH 320 g/ha, evaluated three weeks after application; for G: green foxtail, herbicidal effect grade: 320 g/ha, three weeks after application. The essentials:
as §1

The subject of experiment [10] is Japanese bulrush. Description: Test Example 1: herbicidal activity, application before weed generation under submerged conditions (Table 16, symbol B). Format: in vivo, Japanese bulrush (Schoenoplectus juncoides). Particulars: amount of applied herbicide 320 g/ha. The essentials:
(§4)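 Alluvial soil was flooded to 4 cm depth, weed seeds were sown mixed and 2.5-leaf rice seedlings were transplanted. On sowing day, the compound's emulsion, diluted in water to a set dose, was applied to the water surface. Plants grew at 25–30 °C and were scored 0–5 after three weeks.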

Experiment [11] deals with Japanese bulrush. The experiment in a line: Test Example 2: herbicidal activity, application during weed generation under submerged conditions (Table 17, symbol B). Particulars: AAH 320 g/ha; application during weed generation, submerged conditions. Type of experiment: in vivo, Japanese bulrush (Schoenoplectus juncoides). A digest of the protocol: as §3
The test system of experiment [12] is redroot pigweed. The experiment in a line: Test Example 4: herbicidal effect by soil treatment (Table 19, symbol N). Format: in vivo, redroot pigweed (Amaranthus retroflexus). Particulars: amount of applied herbicide 320 g/ha. The essentials:
as §2

Experiment [13] deals with Italian ryegrass. Description: Test Example 4: herbicidal effect by soil treatment (Table 19, symbol K). Format: in vivo, Italian ryegrass (Lolium multiflorum). Particulars: amount of applied herbicide 320 g/ha. A digest of the protocol: as §2
Experiment [14] concerns redroot pigweed. The experiment in a line: Test Example 5: herbicidal effect by foliage application, plastic box (Table 20, symbol N). Type of experiment: in vivo, redroot pigweed (Amaranthus retroflexus). To be noted: foliage application; for N: redroot pigweed, herbicidal effect (criteria 0-5): AAH 320 g/ha, evaluated three weeks after application; for N: redroot pigweed, herbicidal effect grade: 320 g/ha, three weeks after application. The essentials: as §1

Experiment [15] relates to late watergrass. The experiment in a line: Test Example 1: herbicidal activity, application before weed generation under submerged conditions (Table 16, symbol A). Type of experiment: in vivo, late watergrass (Echinochloa oryzicola). To be noted: amount of applied herbicide 320 g/ha. The essentials:
as §4

Experiment [16] deals with barnyard grass. Description: Test Example 4: herbicidal effect by soil treatment (Table 19, symbol H). Type of experiment: in vivo, barnyard grass (Echinochloa crus-galli). To be noted: amount of applied herbicide 320 g/ha. A digest of the protocol: as §2

Turning to `CCCC(=O)Oc1c(C)nn(C)c(=O)c1-c1c(-c2ccc(Cl)s2)sc2ccc(F)cc12` [2-391], the “J: blackgrass, herbicidal effect (criteria 0-5)” value in experiment [1] is 3 (Herbicidal rate of 40% or more and less than 70%). Further, the “I: wild oat, herbicidal effect (criteria 0-5)” value in [2] was 3 (Herbicidal rate of 40% or more and less than 70%). For the same compound, the “P: chickweed, herbicidal effect (criteria 0-5)” value in [3] is 5 (Herbicidal rate of 90% or more (almost completely withered)). In experiment [4], the “herbicidal effect, I: wild oat” value was 0 (Herbicidal rate of 5% or less (almost no effect)). Further, the “H: barnyard grass, herbicidal effect (criteria 0-5)” value in experiment [5] is given as 5 (Herbicidal rate of 90% or more (almost completely withered)). Also, the “herbicidal effect, J: blackgrass” value in experiment [6] was 2 (Herbicidal rate of 20% or more and less than 40%). For the same compound, the “herbicidal effect rating, C: oval-leafed pondweed” value (“herbicidal effect rating, C” below) in experiment [7] was 5 (Herbicidal rate of 90% or more (almost completely withered)). Further, the “herbicidal effect, F: southern crabgrass” value in experiment [8] was 5 (Herbicidal rate of 90% or more (almost completely withered)). Also, in [9], the “G: green foxtail, herbicidal effect (criteria 0-5)” value is listed as 5 (Herbicidal rate of 90% or more (almost completely withered)). In addition, the “Herbicidal effect, B: Japanese bulrush” value in experiment [10] was 4 (Herbicidal rate of 70% or more and less than 90%). Besides, the “herbicidal effect rating, B: Japanese bulrush” value (“herbicidal effect rating, B” below) in experiment [11] is 4 (Herbicidal rate of 70% or more and less than 90%). For the same compound, in experiment [12], the “herbicidal effect, N: redroot pigweed” value is recorded as 5 (Herbicidal rate of 90% or more (almost completely withered)). For the same compound, in [13], the “herbicidal effect, K: Italian ryegrass” value is recorded as 5 (Herbicidal rate of 90% or more (almost completely withered)). The “N: redroot pigweed, herbicidal effect (criteria 0-5)” value in experiment [14] was 5 (Herbicidal rate of 90% or more (almost completely withered)). In experiment [15], the “Herbicidal effect, A: late watergrass” value is reported as 5 (Herbicidal rate of 90% or more (almost completely withered)). In addition, the “herbicidal effect, H: barnyard grass” value in [16] is 4 (Herbicidal rate of 70% or more and less than 90%).

Regarding `Cc1nn(C)c(=O)c(-c2c(-c3ccc4c(c3)OC(F)(F)O4)sc3ccc(F)cc23)c1O` [2-392], the “J: blackgrass, herbicidal effect (criteria 0-5)” value in experiment [1] is given as 0 (Herbicidal rate of 5% or less (almost no effect)). Moreover, the “I: wild oat, herbicidal effect (criteria 0-5)” value in [2] was 4 (Herbicidal rate of 70% or more and less than 90%). Also, the “P: chickweed, herbicidal effect (criteria 0-5)” value in experiment [3] is reported as 5 (Herbicidal rate of 90% or more (almost completely withered)). The “herbicidal effect, I: wild oat” value in [4] is recorded as 0 (Herbicidal rate of 5% or less (almost no effect)). Further, the “H: barnyard grass, herbicidal effect (criteria 0-5)” value in [5] is listed as 5 (Herbicidal rate of 90% or more (almost completely withered)). Also, the “herbicidal effect, J: blackgrass” value in [6] is 0 (Herbicidal rate of 5% or less (almost no effect)). In addition, in [7], the “herbicidal effect rating, C” value is listed as 0 (Herbicidal rate of 5% or less (almost no effect)). Also, the “herbicidal effect, F: southern crabgrass” value in experiment [8] is 2 (Herbicidal rate of 20% or more and less than 40%). In addition, the “G: green foxtail, herbicidal effect (criteria 0-5)” value in [9] was 3 (Herbicidal rate of 40% or more and less than 70%). The “Herbicidal effect, B: Japanese bulrush” value in experiment [10] is reported as 0 (Herbicidal rate of 5% or less (almost no effect)). Besides, the “herbicidal effect rating, B” value in experiment [11] is 0 (Herbicidal rate of 5% or less (almost no effect)). In addition, in [12], the “herbicidal effect, N: redroot pigweed” value was 3 (Herbicidal rate of 40% or more and less than 70%). Further, the “herbicidal effect, K: Italian ryegrass” value in experiment [13] was 3 (Herbicidal rate of 40% or more and less than 70%). For the same compound, the “N: redroot pigweed, herbicidal effect (criteria 0-5)” value in experiment [14] is 4 (Herbicidal rate of 70% or more and less than 90%). In addition, the “Herbicidal effect, A: late watergrass” value in experiment [15] was 3 (Herbicidal rate of 40% or more and less than 70%). For the same compound, the “herbicidal effect, H: barnyard grass” value in [16] is 2 (Herbicidal rate of 20% or more and less than 40%).

Take `CCCC(=O)Oc1c(CC)nn(C)c(=O)c1-c1c(-c2ccc(C(F)(F)F)cc2)sc2ccc(F)cc12` [2-411]: the “J: blackgrass, herbicidal effect grade” value in experiment [1] is given as 0 (Herbicidal rate of 5% or less (almost no effect)). For the same compound, in experiment [2], the “I: wild oat, herbicidal effect grade” value is 0 (Herbicidal rate of 5% or less (almost no effect)). Also, the “P: chickweed, herbicidal effect grade” value in experiment [3] is given as 5 (Herbicidal rate of 90% or more (almost completely withered)). Further, the “herbicidal effect, I: wild oat” value in experiment [4] is given as 0 (Herbicidal rate of 5% or less (almost no effect)). In [5], the “H: barnyard grass, herbicidal effect grade” value is 3 (Herbicidal rate of 40% or more and less than 70%). The “herbicidal effect, J: blackgrass” value in experiment [6] is 0 (Herbicidal rate of 5% or less (almost no effect)). In [7], the “herbicidal effect rating, C” value is given as 0 (Herbicidal rate of 5% or less (almost no effect)). Besides, the “herbicidal effect, F: southern crabgrass” value in [8] is 0 (Herbicidal rate of 5% or less (almost no effect)). In addition, the “G: green foxtail, herbicidal effect grade” value in experiment [9] is 3 (Herbicidal rate of 40% or more and less than 70%). Besides, in experiment [10], the “Herbicidal effect, B: Japanese bulrush” value is recorded as 0 (Herbicidal rate of 5% or less (almost no effect)). In addition, the “herbicidal effect rating, B” value in experiment [11] is 0 (Herbicidal rate of 5% or less (almost no effect)). For the same compound, the “herbicidal effect, N: redroot pigweed” value in experiment [12] was 0 (Herbicidal rate of 5% or less (almost no effect)). The “herbicidal effect, K: Italian ryegrass” value in experiment [13] is listed as 0 (Herbicidal rate of 5% or less (almost no effect)). In addition, the “N: redroot pigweed, herbicidal effect grade” value in [14] is given as 5 (Herbicidal rate of 90% or more (almost completely withered)). The “Herbicidal effect, A: late watergrass” value in experiment [15] is 3 (Herbicidal rate of 40% or more and less than 70%). Further, in experiment [16], the “herbicidal effect, H: barnyard grass” value was 0 (Herbicidal rate of 5% or less (almost no effect)).

Consider `CCOC(=O)Oc1c(C)nn(C)c(=O)c1-c1c(-c2ccccc2OC)sc2cc(F)ccc12` [3-024], for which the “J: blackgrass, herbicidal effect grade” value was 4 (Herbicidal rate of 70% or more and less than 90%) in [1]; 1 (Herbicidal rate of 5% or more and less than 20%) in experiment [6]. The “I: wild oat, herbicidal effect grade” value in experiment [2] is 3 (Herbicidal rate of 40% or more and less than 70%); in experiment [4], 3 (Herbicidal rate of 40% or more and less than 70%). Besides, the “P: chickweed, herbicidal effect grade” value in experiment [3] is given as 5 (Herbicidal rate of 90% or more (almost completely withered)). Also, the “H: barnyard grass, herbicidal effect grade” value is 5 (Herbicidal rate of 90% or more (almost completely withered)) in experiment [5]; 3 (Herbicidal rate of 40% or more and less than 70%) in experiment [16]. Moreover, in experiment [7], the “herbicidal effect rating, C” value is 3 (Herbicidal rate of 40% or more and less than 70%). The “F: southern crabgrass, herbicidal effect grade” value in [8] was 3 (Herbicidal rate of 40% or more and less than 70%). Further, in experiment [9], the “G: green foxtail, herbicidal effect grade” value is on record as 5 (Herbicidal rate of 90% or more (almost completely withered)). Besides, the “Herbicidal effect, B: Japanese bulrush” value in experiment [10] is on record as 0 (Herbicidal rate of 5% or less (almost no effect)). Further, the “herbicidal effect rating, B” value in experiment [11] is 3 (Herbicidal rate of 40% or more and less than 70%). In addition, the “N: redroot pigweed, herbicidal effect grade” value in experiment [12] and in experiment [14] was 5 (Herbicidal rate of 90% or more (almost completely withered)) each time. In addition, the “K: Italian ryegrass, herbicidal effect grade” value in experiment [13] was 1 (Herbicidal rate of 5% or more and less than 20%). Also, the “Herbicidal effect, A: late watergrass” value in experiment [15] was 3 (Herbicidal rate of 40% or more and less than 70%).

These data come from patent publication US20230085307A1, “PYRIDAZINONE COMPOUND AND HERBICIDE” (NISSAN CHEMICAL CORPORATION, priority 2019, published 2023).
